The values that follow are results of earlier work, collected in patent US11246819B2, “Compositions and methods for inhibiting biofilm deposition and production” (THE TRUSTEES OF THE UNIVERSITY OF PENNSYLVANIA, priority 2016, dated 2022).

Where no end group is shown, it is not given here.

One data set deals with biofilm. The following applies: 3 min incubation with biofilms, mutanase removed, then 6 hr incubation.

On to “protegrin: cysteine-rich, 18-residue β-sheet antimicrobial peptide (RGGRLCYCRRRFCVCVGR; not fully specified (bridges); ends and bridges not checked; UniProt P32194 131-148, looked up)”, for which the potency when linearized result is reported as “lost potency”. Also, the “entry into human mast cells and degranulation” value with human mast cells is “enter human mast cells and induce degranulation”.

With retrocyclin, the “entry into human mast cells and degranulation” value in the data set on human mast cells is “enter human mast cells and induce degranulation”.

B1: mutanase from Paenibacillus sp. strain RM1: bacterial mutanase, codon optimized for chloroplast expression (SEQ ID NO: 1) (protein)
chain: AGGPNLTPGKPITASGQSQTYSPQNVKDGNQNTYWESTNNAFPQWIQVDLGASTGIDQIVLKLPASWEARTQTLAVQGSLNGSTFTDIVGSANYVFSPSVGNNTVTINFTATSTRYVRLYVTANTGWPAAQLSEFEIYGSGDQTPAPDTYQAESAALSGGAKVNTDHAGYIGTGFVDGYWTQGATTTFSVNAPTAGNYDVTLRYGNATGSNKTVSLYVNGAKIRQTTLPSLPNWDSWSSKTETLNLNAGSNTIAYKYDPGDSGNVNLDQITVEASTSTPTPTPSPTPTPTPTPTPTPTPTPTPTPTPTPTPTPTPTPTPTPPPGGNIAIGKSISASSHTQTYVAENANDNDVNTYWEGGGNPSTLTLDLGANYNITSIVLKLNPSSIWAARTQTIQVLGHDQNTTTFSNLVSAKSYSFDPASGNTVTIPVTATVKRLQLNITSNSGAPAGQVAEFQVFGTPAPNPDLTITGMSWSPSSPVETDAITLNATVKNNGNASAAATTVNFYLNNELAGSAPVAALAAGASATVPLNVGAKTAATYAVGAKVDESNAVIELNESNNSYTNPASLVVAPVSSSDLVGTVSWTPSTPIANNAVSFNVNLKNQGTIASAGGSHGVTVVLKNASGSTVQTFSGSYTGSLAPGASVNITLPGTWTAAAGSYTVTATVAADANELPIKQANNANTASLTVYSARGASMPYSRYDTEDATLGGGATLKSAPTFDQALTASEATGQLYAALPSNGSYLQWTVRQGQGGAGVTMRFTMPDSADGMGLNGSLDVYVNGTKVKTVSLTSYYSWQYFSGDMPGDAPSAGRPLFRFDEVHWKLDTPLKPGDTIRIQKNNGDSLEYGVDFIEIEPVPAAISRPANSVSVTDYGAVPNDGQDDLTAFKAAVNAAVASDKILYIPEGTFHLGNMWEIGSVSNMIDHITITGAGIWYTNIQFTNANPASGGISLRITGKLDFSNVYLNSNLRSRYGQNAVYKGFMDNFGTNSVIRDVWVEHFECGFWVGDYGHTPAIRASGLLIENSRIRNNLADGVNFAQGTSNSTVRNSSLRNNGDDALAVWTSNTNGAPEGVNNTFSYNTIENNWRAGGIAFFGGSGHKADHNYIVDCVGGSGIRMNTVFPGYHFQNNTGIVFSDTTIVNCGTSKDLYNGERGAIDLEASNDAIRNVTFTNIDIINSQRDAIQFGYGGGFTNIVFNNININGTGLDGVTTSRFSGPHLGAAIFTYTGNGSATFNNLRTSNIAYPNLYYIQSGFNLIINNHHHHHH
modifications: codon optimized mutanase
Regarding B1, the biofilm degradation entry with biofilm is “effectively degraded”.
